From ChEMBL document CHEMBL1142639, “New triterpenoid saponins from the sponge Melophlus isis” (2000)
Converted amounts (≈) assume the structure as drawn. The source made the active and inactive calls. No cut-off for these calls is given here.

How the values were obtained:
[1] = test system: K562; experiment: Cytotoxicity against human K562 cells; assay type: functional; conditions: read-out: LC50 (the source's name)
[2] = test system: Photobacterium phosphoreum; experiment: Antibacterial activity against Photobacterium phosphoreum at 100 ug/mL by paper disk method; assay type: functional, organism-based
[3] = test system: Photobacterium leiognathi; experiment: Antibacterial activity against Photobacterium leiognathi at 100 ug/mL by paper disk method; assay type: functional, organism-based
[4] = test system: Vibrio harveyi; experiment: Antibacterial activity against Vibrio harveyi at 100 ug/mL by paper disk method; assay type: functional, organism-based

Compound | CC50 [1] [µg/mL] | Activity [2] | Activity [3] | Activity [4] | A ctivity [3]
CC(=O)N[C@H]1[C@H](O[C@@H]2CO[C@@H](O[C@H]3CC[C@]4(C)C5=C(CC[C@H]4C3(C)C)[C@@H]3CC[C@H]([C@H](C)CC(=O)C=C(C)C)[C@@]3(C)CC5)[C@H](O[C@@H]3O[C@H](CO[C@@H]4O[C@H](CO)[C@@H](O)[C@H](O)[C@H]4O[C@@H]4O[C@H](CO)[C@@H](O)[C@H](O)[C@H]4O)[C@@H](O)[C@H](O)[C@H]3NC(C)=O)[C@H]2O)O[C@H](CO)[C@H](O)[C@@H]1O [SARASINOSIDE A1] | 6.5 (≈ 5.04 µM) | – | – | – | –
CC(=O)N[C@H]1[C@H](O[C@@H]2CO[C@@H](O[C@H]3CC[C@]4(C)C5=C(CC[C@H]4C3(C)C)C3=CC[C@H]([C@H](C)CC(=O)C=C(C)C)[C@@]3(C)CC5)[C@H](O[C@@H]3O[C@H](CO[C@@H]4O[C@H](CO)[C@@H](O)[C@H](O)[C@H]4O[C@@H]4O[C@H](CO)[C@@H](O)[C@H](O)[C@H]4O)[C@@H](O)[C@H](O)[C@H]3NC(C)=O)[C@H]2O)O[C@H](CO)[C@H](O)[C@@H]1O [SARASINOSIDE A3] | 17.1 (≈ 13.3 µM) | – | – | – | –
CC(=O)N[C@H]1[C@H](O[C@@H]2CO[C@@H](O[C@H]3CC[C@@]4(C)[C@@H](CCC5=C6[C@H](O)C[C@H]([C@H](C)CC(=O)C=C(C)C)[C@@]6(C)CC[C@@]54O)C3(C)C)[C@H](O[C@@H]3O[C@H](CO[C@@H]4O[C@H](CO)[C@@H](O)[C@H](O)[C@H]4O[C@@H]4O[C@H](CO)[C@@H](O)[C@H](O)[C@H]4O)[C@@H](O)[C@H](O)[C@H]3NC(C)=O)[C@H]2O)O[C@H](CO)[C@H](O)[C@@H]1O [SARASINOSIDE H1] | > 100 | inactive | inactive | inactive | –
CO[C@@H]1C[C@H]([C@H](C)CC(=O)C=C(C)C)[C@@]2(C)CC[C@@]3(O)C(=C12)CC[C@H]1C(C)(C)[C@@H](O[C@@H]2OC[C@@H](O[C@@H]4O[C@H](CO)[C@H](O)[C@H](O)[C@H]4NC(C)=O)[C@H](O)[C@H]2O[C@@H]2O[C@H](CO[C@@H]4O[C@H](CO)[C@@H](O)[C@H](O)[C@H]4O[C@@H]4O[C@H](CO)[C@@H](O)[C@H](O)[C@H]4O)[C@@H](O)[C@H](O)[C@H]2NC(C)=O)CC[C@@]13C [SARASINOSIDE H2] | > 100 | inactive | inactive | inactive | –
CC(=O)N[C@H]1[C@H](O[C@@H]2CO[C@@H](O[C@H]3CC[C@@]4(C)[C@@H](CCC5=C6[C@@H](O)C[C@H]([C@H](C)CC(=O)C=C(C)C)[C@@]6(C)CC[C@@]54O)C3(C)C)[C@H](O[C@@H]3O[C@H](CO[C@@H]4O[C@H](CO)[C@@H](O)[C@H](O)[C@H]4O[C@@H]4O[C@H](CO)[C@@H](O)[C@H](O)[C@H]4O)[C@@H](O)[C@H](O)[C@H]3NC(C)=O)[C@H]2O)O[C@H](CO)[C@H](O)[C@@H]1O [SARASINOSIDE I1] | > 100 | inactive | – | inactive | inactive
CO[C@H]1C[C@H]([C@H](C)CC(=O)C=C(C)C)[C@@]2(C)CC[C@@]3(O)C(=C12)CC[C@H]1C(C)(C)[C@@H](O[C@@H]2OC[C@@H](O[C@@H]4O[C@H](CO)[C@H](O)[C@H](O)[C@H]4NC(C)=O)[C@H](O)[C@H]2O[C@@H]2O[C@H](CO[C@@H]4O[C@H](CO)[C@@H](O)[C@H](O)[C@H]4O[C@@H]4O[C@H](CO)[C@@H](O)[C@H](O)[C@H]4O)[C@@H](O)[C@H](O)[C@H]2NC(C)=O)CC[C@@]13C [SARASINOSIDE I2] | > 100 | inactive | inactive | inactive | –
